In patent US7183061B2, “Method of expressing Heliothis ecdysone receptor fusion protein” (Syngenta Limited, priority 1996, dated 2007):

Biological target: chimeric glucocorticoid VP16/Heliothis ecdysone receptor (UniProt O18473+P04150, DEL153-392/E478D/INS403[…]/INS405[…]/M398P/P396A/P400T/P406S/R399P/S397A/Y393A)
Test: GUS levels in transgenic tobacco progeny containing pES3 and pES4
Format: in vivo, Heliothis virescens
Set-up: expressed in transfected cells; stably transformed tobacco plants, pES3/pES4 (A11)
Description: The methodology described below was used to produce four different stable Tobacco vectors. The method involves three steps: • 1. pbluescript SK HindIII/EcoRI vector was ligated to either GRE6-4635SCaMVGUSNOS HindIII/EcoRI (from p221.10GRE6) or GRE6-6035SCaMVGUSNOS HindIII/EcoRI (from p221.9GRE6) resulting in plasmid pSK-46 and pSK-60. • 2. This step involves the addition of the chimeric receptor (35SGRHEcRNOS or 35SGRVP16HEcRNOS) to pSK-60 or pSK-46. Thus a pSK-60 (or pSK-46) XbaI vector was ligated with either the 3.4 kb 35SGRHEcRNOS XbaI or the 3.0 kb 35SGRVP16HEcRNOS XbaI DNA fragment to produce pSKES1 (pSKGRE6-6035SCaMVGUSNOS-35SGRHEcRNOS), pSKES2 (pSKGRE6-4635 SCaMVGUSNOS-35 SGRHEcRNOS), pSKES3 (pSKGRE6-6035SCaMVGUSNOS-35SGRVP16HEcRNOS) and pSKES4 (pSKGRE6-4635SCaMVGUSNOS-35SGRVP16HEcRNOS). • 3. Transfer from pBluescript based vectors to binary vectors. […] The DNA of the recombinant was characterised by restriction mapping and the sequence of the junctions determined. […]

Chain of chimeric glucocorticoid VP16/Heliothis ecdysone receptor (P04150+O18473 fused with the stated changes): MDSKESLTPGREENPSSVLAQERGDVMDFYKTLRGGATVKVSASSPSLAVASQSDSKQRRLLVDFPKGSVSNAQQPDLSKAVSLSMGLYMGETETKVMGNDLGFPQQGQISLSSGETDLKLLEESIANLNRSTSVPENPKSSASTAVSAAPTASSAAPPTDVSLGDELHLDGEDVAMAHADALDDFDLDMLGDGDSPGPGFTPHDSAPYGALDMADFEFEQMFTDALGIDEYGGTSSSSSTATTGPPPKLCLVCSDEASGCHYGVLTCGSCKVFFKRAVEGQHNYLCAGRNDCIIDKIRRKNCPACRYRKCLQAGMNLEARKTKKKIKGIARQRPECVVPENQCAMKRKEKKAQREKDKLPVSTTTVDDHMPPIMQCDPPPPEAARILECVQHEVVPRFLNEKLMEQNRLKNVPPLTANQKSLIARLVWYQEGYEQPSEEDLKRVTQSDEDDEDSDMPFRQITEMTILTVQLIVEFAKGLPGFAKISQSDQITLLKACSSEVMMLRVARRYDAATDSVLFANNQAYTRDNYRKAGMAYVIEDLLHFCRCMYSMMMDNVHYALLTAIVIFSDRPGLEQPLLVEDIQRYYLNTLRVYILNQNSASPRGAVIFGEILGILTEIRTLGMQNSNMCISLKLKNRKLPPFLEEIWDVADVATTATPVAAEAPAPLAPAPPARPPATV

With `CCc1ccc(C(=O)NN(C(=O)c2cc(C)cc(C)c2)C(C)(C)C)cc1` [RH5992, 3,5-dimethylbenzoic acid 1-1(1,1-dimethylethyl)-2(4-ethylbenzoyl)hydrazide] the “GUS levels relative to transgenic plants containing non-VP16 vectors pES1 and pES2” value was “elevated GUS levels”.
